{"source": "patent US4956367A", "about": "“2-amino-4-morpholino-6-propyl-1,3,5-triazines” (U C B S.A., priority 1988, dated 1990)", "key": {"[1]": {"tested_on": "tremogenic effect of oxotremorine", "assay": "Potentiation of the cholinergic effects of oxotremorine: tremogenic (central) effect", "format": "in vivo, male NMRI mice", "details": "mice", "method": "(§1) 1. Potentiation of the cholinergic effects of oxotremorine. […] The degree of peripheral cholinergic activation is measured by the salivatory effect quantified by the following rating system:\nThe degree of central cholinergic activation is measured by the tremogenic effect quantified by the following rating system:\nscore 1: slight and periodic occasional tremors;\nscore 2: moderate and slight tremors often repeated;\nscore 4: accentuated tremors, but interrupted by periods of calm:\nscore 6: very accentuated and almost continuous tremors.\n(§2) Male NMRI mice (20 to 25 g) are divided into four groups of five animals, that is to say: one control group and three treated groups. The compound to be tested is administered intraperitoneally (to the three treated groups) 20 minutes before the administration of the oxotremorine, at a dose which differs for each of the treated groups. […] For each of the groups, the individual scores recorded at each observation period are summed; this enables to plot a curve showing the sum of the scores as a function of time, which is characteristic for each group.\n(§3) The mean values of the areas under the curves obtained for each of the treated groups are compared with the mean value of the area under the curve corresponding to the control group and is subjected to statistical analysis by the Mann-Whitney method. From this comparison, a \"minimum active dose\" can be determined. […]"}, "[2]": {"tested_on": "salivatory effect of oxotremorine", "assay": "Potentiation of the cholinergic effects of oxotremorine: salivatory (peripheral) effect", "format": "in vivo, male NMRI mice", "details": "mice", "method": "as §1\nscore 1: a little saliva is found around the teeth:\nscore 2: the saliva forms a narrower band around the mouth;\nscore 4: the saliva wets a surface underneath the chin;\nscore 6: the saliva runs from the mouth, for example onto the forelegs.\nThe intermediate scores are not used, and the saliva is wiped away after each observation.\nas §2, §3"}, "[3]": {"tested_on": "amnesia induced by scopolamine", "assay": "Multiple-trial passive avoidance: mnemic retention, amnesia induced by scopolamine", "format": "in vivo, male Sprague-Dawley rats", "details": "rats", "method": "4. Multiple-trial passive avoidance. The compounds of the present invention have been studied with the aim of\nColumns 3 and 4 show the results obtained in the test used to evaluate the learning. The figures indicate the average number of trials needed for a control animal (group 1) or an animal treated (group 2) with the compound to learn to remain on the rubber mat for 180 seconds in order to avoid the electric shock. The results were analyzed by the Student test."}, "[4]": {"tested_on": "effects of scopolamine on the band from 6.4 to 9.6 Hz in the EEG", "assay": "Inhibition of the effects of scopolamine on the electroencephalogram (EEG)", "format": "in vivo, male albino Sprague-Dawley rats", "design": "inhibition: dose or concentration left out as unconfirmed", "method": "Male albino Sprague-Dawley SPF rats (160 to 200 g) are used in this test. When the animals are 3 months old, 5 cortical electrodes are implanted permanently, aseptically and under a general anesthesia: one inert electrode, one left and one right frontal electrode, and one left and one right occipital electrode (P. ETEVENON, loc.cit.). The test is carried out when the animals are about 15 months old. In the meantime, the animals are kept in individual cages. They are given water and food ad libitum and are subjected to a regular daily cycle comprising a period of darkness between 6 o'clock in the evening and 6 o'clock in the morning. At the same time, the animals are progressively acclimatized to the cages of the sound-proof cabin which they will subsequently occupy for recording of the electroencephalograms, as well as to the experimental conditions, by intraperitoneal administration of placebo. The products are administered immediately before the EEG is recorded. The rats are divided into groups of 8 animals and 16 samples of the EEG spectra are recorded over 5 seconds (two EEG spectra per animal). The spectra obtained are then analyzed by computer (rapid Fourier transform), which enables the average of the 16 measurements performed to be determined for each group and the overall intensity of the EEG spectrum and the distribution of this intensity (in %) in the various frequency bands to be deduced for each animal. This operation (recording of the spectra) is repeated 9 times (total"}, "[5]": {"tested_on": "hyperactivity induced by scopolamine", "assay": "Inhibition of hyperactivity induced by scopolamine", "format": "in vivo, male Sprague-Dawley rats", "details": "rats, administered more than 15 minutes before the measurements"}, "[6]": {"details": "20 minutes after administration at the minimum active dose"}}, "data": [{"smiles": "COC(=O)C1=CCCN(C)C1", "note": "[arecoline, methyl 1,2,5,6-tetrahydro-1-methyl-3-pyridinecarboxylate]", "values": [{"measurement": "potentiation of the tremogenic effect of oxotremorine 20 minutes after administration", "setting": "[1]; [6]", "result": "gives no potentiation"}, {"measurement": "potentiation of the salivatory effect of oxotremorine 20 minutes after administration", "setting": "[2]; [6]", "result": "gives no potentiation"}]}, {"smiles": "O=C1CCCN1CC#CCN1CCCC1", "note": "[oxotremorine]", "values": [{"measurement": "minimal effective dose", "setting": "[1]; Mus musculus, ip, intraperitoneal, read-out: minimum dose of oxotremorine which causes tremors", "result": "~0.05", "unit": "mg/kg"}, {"measurement": "minimal effective dose", "setting": "[2]; Mus musculus, ip, intraperitoneal, read-out: minimum dose of oxotremorine which causes salivation", "result": "~0.05", "unit": "mg/kg"}]}, {"smiles": "CNC(=O)Oc1ccc2c(c1)[C@]1(C)CCN(C)[C@@H]1N2C", "note": "[physostigmine, reference compound]", "values": [{"measurement": "influence on the amnesing effect of scopolamine", "setting": "[3]; i.p., group 4 vs. group 3", "result": "favorable action against the amnesing effect of scopolamine, similar to that of the compounds of the invention"}, {"measurement": "inhibition", "setting": "[4]; Rattus norvegicus, ip, read-out: Inhibition (percentage of reduction in the increase in the intensity of the band from 6.4 to 9.6 Hz)", "result": 76.8, "unit": "%"}, {"measurement": "inhibition of the effects which scopolamine exerts on the electroencephalogram", "setting": "[4]; rats, i.p.", "result": "inhibit the effects which scopolamine exerts on the electroencephalogram"}, {"measurement": "inhibitory activity on scopolamine hyperactivity, administered more than 15 minutes before measurements", "setting": "[5]", "result": "inactive"}]}, {"smiles": "CN1[C@@H]2C[C@@H](OC(=O)[C@H](CO)c3ccccc3)C[C@H]1[C@@H]1O[C@@H]12", "note": "[scopolamine]", "values": [{"measurement": "amnesing effect", "setting": "[3]; group 3, scopolamine alone", "result": "very pronounced"}]}]}
